Source: ChEMBL document CHEMBL4402520, “Synthetic routes and structure-activity relationships (SAR) of anti-HIV agents: A key review” (Eur J Med Chem, 2019)
In brackets after ≈: the same amount, converted by molar mass.

Columns and labels:
[1] = Selectivity index, ratio of CC50 for human C8166 cells to EC50 for HIV1 3B infected in human C8166 cells; format: toxicity, cell-based; details: read-out: Selectivity Index
C8166 = experiment: Cytotoxicity against human C8166 cells assessed as reduction in cell viability; format: functional, cell-based
[2] = biological target: Human immunodeficiency virus type 1 reverse transcriptase (Human immunodeficiency virus 1, UniProt Q72547); experiment: Inhibition of HIV-1 reverse transcriptase after 1 hr by ELISA
[3] = tested on: Human immunodeficiency virus 1; experiment: Antiviral activity against wild type HIV1 3B infected in human MT4 cells using [3H]dGTP by radio-labelled binding assay; format: functional, organism-based; details: Human immunodeficiency virus 1, 3B
[4] = tested on: Human immunodeficiency virus 1; experiment: Antiviral activity against HIV1; format: functional, organism-based
[5] = Inhibition of HIV reverse transcriptase; design: species or system Human immunodeficiency virus
TZM [6] = experiment: Cytotoxicity against human TZM-bl cells; format: functional
[7] = Selectivity index, ratio of CC50 for human TZM-bl cells to EC50 for wild type HIV1 3B infected in human TZM-bl cells; format: toxicity, cell-based; details: read-out: Selectivity Index
[8] = tested on: Human immunodeficiency virus 1; experiment: Antiviral activity against wild type HIV1 3B infected in human TZM-bl cells after 4 days by ELISA; format: functional, organism-based; details: Human immunodeficiency virus 1, 3B, 96 h
[9] = tested on: Human immunodeficiency virus 1; experiment: Antiviral activity against wild type HIV1 3B infected in human TZM-bl cells; format: functional, organism-based; details: Human immunodeficiency virus 1, 3B
[10] = tested on: Human immunodeficiency virus 1; experiment: Antiviral activity against HIV1 3B after 48 hrs […]; format: functional, organism-based; details: Human immunodeficiency virus 1, 3B
[11] = tested on: Human immunodeficiency virus 2; experiment: Antiviral activity against HIV2 ROD after 48 hrs […]; format: functional, organism-based; details: Human immunodeficiency virus 2, ROD
[12] = tested on: Human immunodeficiency virus 1; experiment: Antiviral activity against wild type HIV1; format: functional, organism-based
TZM [13] = experiment: Cytotoxicity against human TZM-bl cells assessed as reduction in cell viability after 4 hrs by MTT assay; format: functional
[14] = tested on: Human immunodeficiency virus 1; experiment: Antiviral activity against wild type HIV1 3B infected in human TZM-bl cells assessed as viral infection at 50 ug/ml after 1 hr relative to control; format: functional; details: Human immunodeficiency virus 1, 3B
[15] = tested on: Human immunodeficiency virus 1; experiment: Antiviral activity against HIV1 3B infected in human C8166 cells; format: functional, organism-based; details: Human immunodeficiency virus 1, 3B, C8166
[16] = tested on: Human immunodeficiency virus 2; experiment: Antiviral activity against HIV2 ROD; format: functional, organism-based; details: Human immunodeficiency virus 2, ROD
[17] = tested on: Human immunodeficiency virus 1; experiment: Antiviral activity against HIV1 3B; format: functional, organism-based; details: Human immunodeficiency virus 1, 3B

COc1ccc2c(c1)CCCN2CCC(=O)N1CCN(c2ccccc2)CC1
selectivity ratio [1]: 5.9
IC50 (C8166): 83.2 µg/mL (≈ 219 µM)
IC50 [2]: 24.2 µM

Cc1cccc(N2C(=O)CSC2c2c(Cl)cccc2Cl)n1 (stereo not drawn)
IC50 [3]: 0.044 µM

COc1ccc(CNC(=O)c2cc(C(C)(C)NC(=O)OCc3ccccc3)cc(O)c2O)cc1
EC50 [4]: 0.15 µM

CC(C)(C)OC(=O)n1ccc2ccc(-c3ccc4ccn(Cc5cccc(C(=O)O)c5)c4c3)cc21
IC50 [4]: 0.8 µM

Cn1ccc2c1S(=O)(=O)c1ccccc1NC2=O
EC50 [4]: 14 µM

O=C(CN(Cc1ccccc1)c1ccc(Cl)cc1)N1CCN(C(c2ccccc2)c2ccccc2)CC1
IC50 [5]: > 100 µM

O=C(N[C@H]1C(=O)Nc2ccccc2C2CCCN21)OCc1ccccc1 (stereo partly drawn)
EC50 [4]: 0.86 µM

COc1ccccc1N1CCN(C(=O)CN(Cc2ccccc2)c2ccc(Cl)cc2)CC1
IC50 [5]: 16.3 µM

COc1ccccc1C(=O)CC1(O)C(=O)Nc2ccc(Cl)cc21 (stereo not drawn)
IC50 [2]: 0.27 µM

O=C1OC(c2ccccc2Cl)C(Cl)c2ccccc21 (stereo not drawn)
CC50 (TZM [6]): 136 µM
selectivity ratio [7]: 11.1
EC50 [8]: 12.3 µM

COC(=O)C(N)(c1c[nH]c2ccc(F)cc12)C(F)(F)F (stereo not drawn)
CC50 (TZM [6]): 49.3 µM
EC50 [9]: 0.045 µM

Cc1cccc(N2C(=O)CSC2c2c(F)cccc2F)n1 (stereo not drawn)
IC50 [3]: 0.082 µM

O=c1[nH]c(=O)n([C@H]2C[C@H](O)[C@@H](CO)O2)cc1C#CCOc1ccc(OCc2ccccc2)cc1
IC50 [4]: 6.68 µM

O=C(CSC1[Se]N=NC1c1ccc(Cl)c(Cl)c1)Nc1ccccc1F (stereo not drawn)
EC50 [10]: > 26.9 µM
EC50 [11]: > 26.9 µM

CC(=O)c1ccc(NC(=O)CSC2[Se]N=NC2c2ccc(Cl)c(Cl)c2)c(Br)c1 (stereo not drawn)
EC50 [10]: 2.45 µM
EC50 [11]: > 18.9 µM

O=C(CSC1[Se]N=NC1c1ccc(Cl)c(Cl)c1)Nc1ccccc1Br (stereo not drawn)
EC50 [10]: > 23.6 µM
EC50 [11]: > 23.6 µM

O=c1[nH]c(=O)n([C@H]2C[C@H](O)[C@@H](CO)O2)cc1CCCOc1ccc(OCc2ccccc2)cc1
IC50 [4]: 2.18 µM

N#Cc1ccc(Nc2nccc(Oc3ccccc3F)n2)cc1
EC50 [12]: 0.0058 µM

NC1=CNC(=O)/C1=N/Nc1ccc([N+](=O)[O-])cc1
Activity (TZM [13]): 80%
inhibition at 50 µg/mL [14]: 91%

O=C(CC1(O)C(=O)Nc2ccc(Cl)cc21)c1ccccc1Cl (stereo not drawn)
IC50 [15]: 0.76 µM

NC1=CNC(=O)/C1=N/Nc1ccc(Br)cc1
Activity (TZM [13]): 40%
inhibition at 50 µg/mL [14]: 98%

O=C(CSC1[Se]N=NC1c1ccc(Cl)c(Cl)c1)Nc1ccccc1Cl (stereo not drawn)
EC50 [10]: > 23.4 µM
EC50 [11]: > 23.4 µM

CCc1c(CC2CCCCC2)nc(SCC(=O)c2ccccc2)[nH]c1=O
EC50 [15]: 0.012 nM
selectivity ratio [1]: 6.32e+06

O=C(CN(Cc1ccccc1)c1ccc(Cl)cc1)N1CCN(c2ccc([N+](=O)[O-])cc2)CC1
IC50 [5]: 14.2 µM

Cn1cc(C(=O)O)c(=O)c2ccc(N3CCN(c4nccs4)CC3)nc21
EC50 [16]: 0.922 µg/mL (≈ 2.48 µM)
EC50 [17]: 3.15 µg/mL (≈ 8.48 µM)
